Patent EP3838286B1, “ANTIMICROBIAL PEPTIDE FROM POLISTES GALLICUS VENOM AND ITS ANALOGS” (Latoxan, priority 2019, dated 2021)
Values after ≈ are worked out from the molar mass of the structure shown. Like-named read-outs stand apart in the source and are kept apart here. Square brackets hold non-standard residues; d marks the D form. Ends that are not written are not given here. Peptide text beside a SMILES is read from it.

Assays:
M. smegmatis = details: 72 h
[1] = test system: B. subtilis (Nisin-resistant)
[2] = Cytotoxicity assay (resazurin); type: cell-based; details: human
Procedure: Normal human cells used were BEAS-2B (ATCC CRL-9609), IMR-90 (ATCC CCL-186) and Human Umbilical Vein Endothelial Cells (HUVEC) (from Sigma-Aldrich) corresponding respectively to human normal lung epithelial, normal lung fibroblast cells and human normal endothelial cells. All cells except HUVEC cells were cultured in Dulbecco's modified essential medium (DMEM) supplemented with 10% fetal calf serum (FCS), 1% L-glutamine and 1% antibiotics (all from Invitrogen). HUVEC cells were cultured in specific endothelial media (from Sigma Aldrich). Cells were seeded onto […] maintained in a 5% CO2 incubator at 37 °C. Cells grown on 25 cm^2 flasks were detached using trypsin-EDTA solution (from Thermofisher), counted using Mallassez counting chamber and seeded into 96-well cell culture plates (Greiner bio-one) at approximately 10,000 cells per well. The cells were left to grow for 48-72 h at 37 °C in a 5% CO2 incubator until they reached confluence. Plates were then aspirated and increasing concentrations of peptides diluted in culture media were added to the cells for 48 h at 37 °C in a 5% CO2 incubator. At the end of the incubation, wells were emptied and cell viability was evaluated using Resazurin based in vitro toxicity assay kit (from Sigma-Aldrich) following manufacturer's instructions. Briefly, Resazurin stock solution was diluted 1:10 in sterile PBS containing calcium and magnesium (PBS, pH 7.4) and empty wells were filled with 100 µL of the diluted solution. After 4 h incubation at 37 °C, fluorescence intensity was measured using microplate reader (Synergy Mx, Biotek) with an excitation wavelength of 530 nm and an emission wavelength of 590 nm. The fluorescence values were normalized by the controls (buffer treated cells) and expressed as percent viability. The IC50 values of peptides on cell viability (i.e. the concentration of derivative causing a reduction of 50% of cell viability) were determined using GraphPad® Prism 7 software. t-Test and two way ANOVA analyses were used to address the significant differences between mean values with significance set at p < 0.05.

human erythrocytes = experiment: Hemolytic activity assay; type: cell-based
Procedure: The hemolytic activity of each peptide was determined by the leakage of hemoglobin from human erythrocytes (obtained from Divbioscience, NL) as previously described (Oyama et al., 2017 Biofilms Microbiomes, Dec 1;3:33).
Briefly, human erythrocytes were washed 3 times with phosphate buffer saline (PBS) and concentrated using centrifugation at 800 g for 5 min. Human erythrocytes were then resuspended in PBS at a final concentration of 8 %. 100 µl of human erythrocytes were then added per well of sterile 96 well microplate already containing 15 µl of serially diluted antimicrobials (1:2 in distilled water). After 1 h at 37°C, the microplate was centrifuged at 800 g for 5 min. 100 µl were then carefully collected and transferred to a new 96 well microplate and OD was measured at 405 nm. Hemolysis caused by peptides was expressed as percentage of hemolysis; Triton-X100 at 0.1 % (v:v) was used as positive control and gave 100 % hemolysis. Hemolysis rate was determined as below: Hemolysis rate (%) = (A−A2)/(A1−A2) × 100% [formula] where A is the absorbance of indicator mixtures with different factors, A1 and A2 are the positive control, and the negative control, respectively.

[3] = BEAS-2B normal lung epithelial cells, normal lung epithelium, read-out: Cytotoxicity IC50 (µM) BEAS
[4] = HUVEC (human umbilical vein endothelial cells), normal endothelium, read-out: Cytotoxicity IC50 (µM) HUVEC
[5] = IMR-90 normal lung fibroblast cells, read-out: Cytotoxicity IC50 (µM) IMR90

## CC[C@@H](C)[C@@H](N)C(=O)N[C@H](CC(C)C)C(=O)N[C@H](CO)C(=O)N[C@H](C)C(=O)N[C@@H](C(=O)N[C@H](CC(C)C)C(=O)NCC(=O)N[C@H](CC(C)C)C(=O)N[C@H](CC(C)C)C(=O)N[C@H](CCCCN)C(=O)N[C@H](CC(N)=O)C(=O)N[C@H](CC(C)C)C(N)=O)[C@H](C)CC [(i1I12)enantio, ilsailgllknl] (H-[dI][dL][dS][dA][dI][dL]G[dL][dL][dK][dN][dL]-NH2)
E. coli
  MIC (µM) E. coli: 100 µM (≈ 127 µg/mL)
B. subtilis
  MIC (µM) B. subtilis: 3.13 µM (≈ 3.96 µg/mL)
P. aeruginosa
  MIC (µM) P. aeruginosa: 100 µM (≈ 127 µg/mL)
S. aureus
  MIC (µM) S. aureus: 6.25 µM (≈ 7.92 µg/mL)

## CC[C@H](C)[C@H](NC(=O)CN)C(=O)NCC(=O)N[C@@H](C)C(=O)N[C@H](C(=O)N[C@@H](CC(C)C)C(=O)N[C@@H](CCCCN)C(=O)N[C@H](C(=O)N[C@@H](CC(C)C)C(=O)N[C@H](C(=O)N[C@H](C(=O)NCC(=O)N[C@@H](CC(C)C)C(=O)N1CCC[C@H]1C(=O)N[C@@H](C)C(=O)N[C@@H](CC(C)C)C(=O)N[C@H](C(=O)N[C@@H](CO)C(=O)N[C@@H](Cc1c[nH]c2ccccc12)C(=O)N[C@H](C(=O)N[C@@H](CCCCN)C(=O)N[C@@H](CCCNC(=N)N)C(=O)N[C@@H](CCCCN)C(=O)N[C@@H](CCCNC(=N)N)C(=O)N[C@@H](CCC(N)=O)C(=O)N[C@@H](CCC(N)=O)C(N)=O)[C@@H](C)CC)[C@@H](C)CC)[C@@H](C)O)[C@@H](C)O)C(C)C)C(C)C [Melittine, Melittin, reference compound]
B. subtilis
  MIC against B. subtilis: 1.56 µM (≈ 4.44 µg/mL)

## CC[C@@H](C)[C@@H](N)C(=O)N[C@@H](CC(C)C)C(=O)N[C@@H](CCCCN)C(=O)N[C@@H](C)C(=O)N[C@H](C(=O)N[C@@H](CCCCN)C(=O)N[C@@H](CCCCN)C(=O)N[C@@H](CC(C)C)C(=O)N[C@@H](CC(C)C)C(=O)N[C@H](CCCCN)C(N)=O)[C@@H](C)CC [i1k10*] (H-[dI]LKAIKKLL[dK]-NH2)
A. gandavensis
  MBC (µM) A. gandavensis: 0.78 µM (≈ 0.91 µg/mL)
  MIC (µM) A. gandavensis: 0.78 µM (≈ 0.91 µg/mL)
H. pylori
  MBC (µM) H. pylori: 12.5 µM (≈ 14.6 µg/mL)
  MIC (µM) H. pylori: 12.5 µM (≈ 14.6 µg/mL)
L. lactis
  MBC (µM) L. lactis: 1.56 µM (≈ 1.82 µg/mL)
  MIC (µM) L. lactis: 0.78 µM (≈ 0.91 µg/mL)
E. coli EHEC K88
  MBC (µM) E. coli EHEC K88: 6.25 µM (≈ 7.29 µg/mL)
  MIC (µM) E. coli EHEC K88: 6.25 to 12.5 µM
M. smegmatis
  MIC (µM) M. smegmatis: 12.5 µM (≈ 14.6 µg/mL)
[1]
  MBC (µM) B. subtilis (Nisin-resistant): 3.12 µM (≈ 3.64 µg/mL)
  MIC (µM) B. subtilis (Nisin-resistant): 3.12 µM (≈ 3.64 µg/mL)
C. rodentium
  MBC (µM) C. rodentium: 12.5 µM (≈ 14.6 µg/mL)
  MIC (µM) C. rodentium: 12.5 µM (≈ 14.6 µg/mL)
C. farmeri
  MBC (µM) C. farmeri: 3.12 µM (≈ 3.64 µg/mL)
  MIC (µM) C. farmeri: 3.12 µM (≈ 3.64 µg/mL)
A.baumani
  MIC (µM) A.baumani: 100 µM (≈ 117 µg/mL)
E. coli
  MIC (µM) E. coli: 50 µM (≈ 58.3 µg/mL)
P. aeruginosa 01
  MBC (µM) P. aeruginosa 01: 12.5 µM (≈ 14.6 µg/mL)
  MIC (µM) P. aeruginosa 01: 3.125 µM (≈ 3.65 µg/mL)
P. aeruginosa
  MBC (µM) P. aeruginosa: 1.5 µM (≈ 1.75 µg/mL)
  MIC PA: 0.78 µM (≈ 0.91 µg/mL)
[2]; [3]
  CC50 at 48 h: 867 µM
[2]; [4]
  CC50 at 48 h: 814 µM
[2]; [5]
  CC50 at 48 h: 783 µM
V. alginolyticus
  MBC (µM) V. alginolyticus: 0.78 µM (≈ 0.91 µg/mL)
  MIC (µM) V. alginolyticus: 0.78 µM (≈ 0.91 µg/mL)
S. flexneri
  MBC (µM) S. flexneri: 6.25 µM (≈ 7.29 µg/mL)
  MIC (µM) S. flexneri: 3.12 to 6.25 µM
P. aeruginosa FQR
  MBC (µM) P. aeruginosa FQR: 25 µM (≈ 29.2 µg/mL)
  MIC (µM) P. aeruginosa FQR: 3.12 to 6.25 µM
S. enterica
  MBC (µM) S. enterica: 12.5 µM (≈ 14.6 µg/mL)
  MIC (µM) S. enterica: 12.5 µM (≈ 14.6 µg/mL)

## Ac-IKAIKKLLKN-NH2 [Ac I1N10*]
A.baumani
  MIC (µM) A.baumani: >100 µM
E. coli
  MIC (µM) E. coli: 100 µM
P. aeruginosa
  MIC (µM) P. aeruginosa: 50 µM

## ILKAIKK-NH2 [I1K7*, ILKAIKK]
A.baumani
  MIC (µM) A.baumani: 100 µM
E. coli
  MIC (µM) E. coli: 100 µM
P. aeruginosa
  MIC (µM) P. aeruginosa: 100 µM
S. aureus; Table 4, n=4
  MIC (µM) S. aureus: / (« / » means MIC > 100µM)

## ILKAIKKLLK-NH2 [I1K10*]
Human erythrocytes; highest concentration tested
  hemotoxicity: no toxicity towards red blood cells up to: > 10 mM

## ILKAIKKLLKN-NH2 [I1N11]
A. gandavensis
  MBC (µM) A. gandavensis: 3.12 µM
  MIC (µM) A. gandavensis: 3.12 µM
H. pylori
  MBC (µM) H. pylori: 100 µM
  MIC (µM) H. pylori: 100 µM
L. lactis
  MBC (µM) L. lactis: 3.12 µM
  MIC (µM) L. lactis: 1.5 µM
E. coli EHEC K88
  MBC (µM) E. coli EHEC K88: >100 µM
  MIC (µM) E. coli EHEC K88: 100 µM
M. smegmatis
  MIC (µM) M. smegmatis: 25 µM
[1]
  MBC (µM) B. subtilis (Nisin-resistant): 12.5 µM
  MIC (µM) B. subtilis (Nisin-resistant): 12.5 µM
C. rodentium
  MBC (µM) C. rodentium: 50 µM
  MIC (µM) C. rodentium: 50 µM
C. farmeri
  MBC (µM) C. farmeri: 12.5 µM
  MIC (µM) C. farmeri: 12.5 µM
P. aeruginosa 01
  MBC (µM) P. aeruginosa 01: 50 µM
  MIC (µM) P. aeruginosa 01: 25 µM
P. aeruginosa
  MBC (µM) P. aeruginosa: 6.25 µM
  MIC (µM) P. aeruginosa: 6.25 µM
  MIC PA: 6.25 µM
[2]; [3]
  CC50 at 48 h: 821 µM
[2]; [4]
  CC50 at 48 h: 826 µM
[2]; [5]
  CC50 at 48 h: 892 µM
V. alginolyticus
  MBC (µM) V. alginolyticus: 0.78 µM
  MIC (µM) V. alginolyticus: 0.78 µM
S. flexneri
  MBC (µM) S. flexneri: 50 µM
  MIC (µM) S. flexneri: 50 µM
P. aeruginosa FQR
  MBC (µM) P. aeruginosa FQR: 100 µM
  MIC (µM) P. aeruginosa FQR: 25 µM
S. enterica
  MBC (µM) S. enterica: 50 µM
  MIC (µM) S. enterica: 100 µM

## ILSAILGLL-NH2 [Peptides I1L9]
B. subtilis
  MIC (µM) B. subtilis: 100 µM
S. aureus
  MIC (µM) S. aureus: 100 µM

## KLLGLILI-NH2 [K1I8]
E. coli
  MIC (µM) E. coli: 50 µM
P. aeruginosa; Table 3, n=4
  MIC (µM) P. aeruginosa: / (« / » means MIC > 100µM)
S. aureus
  MIC (µM) S. aureus: 25 µM

## LKAIKKLL-NH2 [L2L9*]
E. coli
  MIC (µM) E. coli: 100 µM
P. aeruginosa
  MIC (µM) P. aeruginosa: 25 µM

## LNKLLGLIASLI-NH2 [L12I1]
P. aeruginosa
  MIC (µM) P. aeruginosa: 50 µM

## LSAILGLLK-NH2 [Peptides L2K10]
B. subtilis
  MIC (µM) B. subtilis: 100 µM

## RLLGLWLW-NH2 [LTX-gallicune-2 (R1W8)]
Human erythrocytes; human erythrocytes, 50% lysis
  MHC50: 225 µM
Human erythrocytes; human erythrocytes, 100% lysis
  MHC100: 1000 µM
Human erythrocytes; human erythrocytes, Fig 3
  times less toxic (hemotoxic) than Gallicus-CP: 20 times
